# Earlier results in PubChem BioAssay AID1259409 (Chemical Carcinogenesis Research Information System (CCRIS), 2018).
# Tested on: rodent chemically induced tumor inhibition, incidence and multiplicity
# Test: CCRIS tumor inhibitor studies
# Conditions: Carcinogen: 7,12-DIMETHYLBENZ[A]ANTHRACENE, 57-97-6, Dose [Inhibitor]: 0
compound,measurement,setting,value
CCCCCCCCCc1ccc(O)cc1,"tumour outcome (control, treated, inhibition, significance)","25 PPM IN DIET FOR 50 WK BEGINNING 1 WK POST-CARCINOGEN DOSE (STUDY DURATION: 51 WK), Route [Inhibitor]: ORAL, Species: RAT, Strain/Sex: SPRAGUE-DAWLEY/FEMALE, Target Tissue: Type of Lesion: OVARY: ADENOCARCINOMA, Dose [Carcinogen]: 0.01 ML OF 0.5% DMBA IN OLIVE OIL INTO THE LEFT OVARY, ONCE, UNDER PENTOBARBITAL ANESTHESIA, Promoter: NONE USED","7/20 (35%), 1/20 (5%), 86%, p=0.02"
same,"tumour outcome (control, treated, inhibition, significance)","250 PPM IN DIET FOR 50 WK BEGINNING 1 WK POST-CARCINOGEN DOSE (STUDY DURATION: 51 WK), Route [Inhibitor]: ORAL, Species: RAT, Strain/Sex: SPRAGUE-DAWLEY/FEMALE, Target Tissue: Type of Lesion: OVARY: ADENOCARCINOMA, Dose [Carcinogen]: 0.01 ML OF 0.5% DMBA IN OLIVE OIL INTO THE LEFT OVARY, ONCE, UNDER PENTOBARBITAL ANESTHESIA, Promoter: NONE USED","7/20 (35%), 1/20 (5%), 86%, p=0.02"
C=CCSC,"tumour outcome (control, treated, inhibition, significance)","1.8 MMOL/KG BW IN CORN OIL 96, 48 AND 24 HR PRIOR TO CARCINOGEN TREATMENT (STUDY DURATION: 25 WK), Route [Inhibitor]: GAVAGE, Species: RAT, Strain/Sex: SPRAGUE-DAWLEY/FEMALE, Target Tissue: Type of Lesion: MAMMARY GLAND: ADENOCARCINOMA, Dose [Carcinogen]: 10 MG ONCE, Promoter: NONE USED","92%, 72%, 22%, p<0.05"
COc1cc2c(c(OC)c1OC)-c1c(cc3c(c1OC)OCO3)C[C@H](C)[C@@](C)(O)C2,"tumour outcome (control, treated, inhibition, significance)","5 UMOL IN 100 µL ACETONE 30 MIN PRIOR EACH PROMOTER DOSE 2/WK FOR 18 WK BEGINNING 7 D POST CARCINOGEN DOSE (STUDY DUR, Route [Inhibitor]: DERMAL, Species: MOUSE, Strain/Sex: ICR/FEMALE, Target Tissue: Type of Lesion: SKIN: PAPILLOMA, Dose [Carcinogen]: 50 UG IN 100 µL ACETONE ONCE, Promoter: 12-O-TETRADECANOYLPHORBOL-13-ACETATE, 16561-29-8","100%, 50%, 50%, not calculated"
